From patent publication EP1170007A1, “REMEDIES” (Takara Shuzo Co, Ltd., priority 1999, dated 2000)

What was measured:
[1] = tested on: HGF production, MRC-5 cells; assay: Enhancement of HGF production in MRC-5 cells (ELISA); format: cell-based, Human; conditions: for Increase in HGF production: 24 hours, negative control defined as 100% (7.2 ng/ml)
Description: MRC-5 cells (CCL171, Dainippon Pharmaceutical) were suspended in a DME medium (Bio Whittaker) containing 10% fetal calf serum at a concentration of 1 x 10^5 cells/ml. 500 µl of the suspension was placed into a 48-well cell culture plate. After culturing at 37°C in the presence of 5% CO2 for 24 hours, the medium was exchanged for a DME medium containing 1% fetal calf serum. Then, one of samples was added thereto. The plate was incubated for additional 24 hours. The medium was then recovered, and the amount of HGF in the culture medium was measured using Quantikine Human Hepatocyte Growth Factor (HGF) ELISA Kit (Funakoshi). The amount of HGF produced was expressed defining a negative control as 100%. In this case, the amount of HGF produced for the negative control was 7.2 ng/ml. Cyclopentenone (at a final concentration of 20, 40 or 160 µM), GM (at a final concentration of 20, 40, 80 or 160 µM), or dipropionylcyclopentenone (at a final concentration of 32 or 64 µM) was added as a sample. As a negative control, distilled water was added in the same volume as the sample. As a positive control, prostaglandin E1 was added at a final concentration of 0.01, 0.1, 1 or 10 µM.

mouse = assay: Single oral dose toxicity in mouse; format: in vivo; conditions: mouse, in vivo, po, 100 mg/kg

O=C1C=CC(O)C1O (centres unmarked) [cyclopentenone, 4,5-dihydroxy-2-cyclopenten-1-one]
Increase in HGF production ([1]; 20 µM): 144% | Increase in HGF production ([1]; 40 µM): 218% | Increase in HGF production ([1]; 160 µM): 238% | amount of HGF produced as compared with the negative control (result in words) ([1]; negative control: distilled water): significantly increased | death after single oral dose (mouse): no example of death was observed
